Results taken from patent EP4292827A1, “INK COMPOSITION, ARTICLE, AND PRODUCTION METHOD THEREFOR” (Zeon Corporation, priority 2021, dated 2022).
Like-named read-outs stand apart in the source and are kept apart here.

Assays:
[1] = standard compounds with known logP values described in JIS 7260-117:2006, used for calibration curve; cited from earlier work

| chromatographic logP (physchem) | Compound | logP [1] | other results |
| --- | --- | --- | --- |
| 5.11 | C=CC(=O)OCCCCCCCCOC(=O)Oc1ccc(C(=O)Oc2ccc(OC(=O)c3ccc(OC(=O)OCCCCCCCCOC(=O)C=C)cc3)c(C)c2)cc1 [Example X4] |  |  |
| 3.58 | C=CC(=O)OCCCCOC(=O)Oc1ccc(C(=O)Oc2ccc(C(=O)O[C@H]3CO[C@@H]4[C@H]3OC[C@H]4OC(=O)c3ccc(OC(=O)c4ccc(OC(=O)OCCCCOC(=O)C=C)cc4)cc3)cc2)cc1 [Example X3] |  |  |
|  | C=CC(=O)OCCCCCCOc1ccc(C(=O)Oc2ccc(/C=N/N=C/c3ccc(OC(=O)c4ccc(OCCCCCCOC(=O)C=C)cc4)c(C(=O)OC)c3)cc2)cc1 [Example X1] |  | chromatographic logP (physchem; hplc): 6.01 |
| 1.75 | C=CC(=O)OCCOc1ccc(-c2ccc(C#N)cc2)cc1 [Example X2] |  |  |
|  | CC(=O)Nc1ccccc1 [Acetanilide] | 1.0 |  |
|  | c1ccc(N(c2ccccc2)c2ccccc2)cc1 [Triphenylamine] | 5.7 |  |
